Like-named read-outs stand apart in the source and are kept apart here.

The conditions of data set [1]: 0.1 MPa partial pressure.
Protocol: (§1) In the autoclave experiments the solvent was thoroughly degassed in the autoclave before the gas was charged without stirring. After a short temperature equilibration the pressure and temperature in the autoclave was recorded and then the solvent was stirred until no further pressure drop could be observed. From the known gas volume and pressure drop the amount of dissolved gas was calculated. In the ^1H NMR experiments either the solvent (propanal) or hexamethylbenzene served as an internal standard.
For data set [2] the following is noted: 0.1 MPa partial pressure, 22 °C; for Xi x 10^4: mol fraction; for Ci: molarity.
Protocol: as §1
The conditions of data set [3]: cited from earlier work; for Xi x 10^4: mol fraction; for Ci: molarity.
Where [4] appears, read: mol fraction of gas in liquid phase, solvent Tetraglyme containing 7.8 w.% PPh3, 20 °C.
Setting [5] is: mol fraction, solvent Tetraglyme containing 7.8 w.% PPh3, 100 °C.
Where [6] appears, read: molarity of gas in liquid phase, solvent Tetraglyme containing 7.8 w.% PPh3, 20 °C.
The mark [7] stands for this setting: molarity, solvent Tetraglyme containing 7.8 w.% PPh3, 100 °C.
The mark [8] stands for this setting: solvent 2-Methylbutanal, 30 °C, ref. e.
Where [9] appears, read: solvent 2-Methylbutanal, 100 °C, ref. e.
Setting [10] is: solvent Formaldehyde diethyl acetal, 30 °C, ref. g.
Where [11] appears, read: solvent 1-Butyl acetate, 18 °C, ref. l.
Where [12] appears, read: solvent 1-Propyl acetate, 18 °C, ref. l.
Setting [13] is: solvent 2-Ethylhexanol-1, 100 °C, ref. w.
Setting [14] is: solvent 2-Propyl acetate, 18 °C, ref. l.
Setting [15] is: solvent Ethyl acetate, 18 °C, ref. l.
[16] abbreviates: solvent Ethylene glycol dimethyl (ether), 100 °C, ref. t.
The mark [17] stands for this setting: solvent Methyl acetate, 18 °C, ref. l.
Setting [18] is: solvent Methyl butanoate, 18 °C, ref. l.
Setting [19] is: solvent Methyl propanoate, 18 °C, ref. l.
Where [20] appears, read: solvent Propionaldehyde, 100 °C, ref. k.
Where [21] appears, read: solvent cell prints 'ether' (wrapped line), 100 °C, ref. v.

As to `C#C` [Acetylene], the “Xi x 10^4” value is recorded as 1224.0 in data set [1] (setting [4]); 242.0 in data set [1] (setting [5]); 246.7 in data set [1] (mol fraction, solvent Toluene, 20 °C); 178.0 in data set [1] (mol fraction, solvent Toluene, 100 °C); 402.0 in data set [2] (solvent Propanal). For the same molecule, the Ci in data set [1] (setting [6]) turned out to be 577.0 mmol/L; in data set [1] (setting [7]), 103.0 mmol/L; in data set [1] (molarity, solvent Toluene, 20 °C), 220.6 mmol/L; in data set [1] (molarity, solvent Toluene, 100 °C), 147.7 mmol/L; in data set [2] (solvent Propanal), 557.7 mmol/L.

For `[C-]#[O+]` [Carbon monoxide], the “Xi x 10^4” value is reported as 11.3 in data set [1] (setting [4]), 34.6 in data set [1] (setting [5]), 10.96 in data set [3] (setting [8]) and 13.93 in data set [3] (setting [9]). Also, the Ci amounted to 4.9 mmol/L in data set [1] (setting [6]) and 14.2 mmol/L in data set [1] (setting [7]).

As for `CC` [Ethane], in data set [3] (setting [10]), the “Xi x 10^4” value is recorded as 214.00 and the Ci is 201.89 mmol/L.

For the molecule `C=C` [Ethylene], the “Xi x 10^4” value is listed as 134.0 in data set [1] (setting [4]), 76.0 in data set [1] (setting [5]), 115.0 in data set [2] (solvent Propanal) and 185.00 in data set [3] (setting [10]). Further, the Ci in data set [1] (setting [6]) was 60.0 mmol/L; in data set [1] (setting [7]), 32.6 mmol/L; in data set [2] (solvent Propanal) it was 159.6 mmol/L; in data set [3] (setting [10]), 174.53 mmol/L.

Consider `[HH]` [Hydrogen], for which the “Xi x 10^4” value is reported as 5.1 in data set [1] (setting [4]); 7.3 in data set [1] (setting [5]); 3.5 in data set [2] (solvent d^8-Toluene); 4.29 in data set [3] (setting [11]); 4.15 in data set [3] (setting [12]); 5.85 in data set [3] (setting [13]). Moreover, the “Xi x 10^4” value is reported as 8.55 in data set [3] (setting [8]); 11.45 in data set [3] (setting [9]); 4.83 in data set [3] (setting [14]); 3.46 in data set [3] (setting [15]); 6.20 in data set [3] (setting [16]); 5.37 in data set [3] (setting [10]). Besides, the “Xi x 10^4” value is reported as 2.51 in data set [3] (setting [17]); 4.67 in data set [3] (setting [18]); 3.77 in data set [3] (setting [19]); 5.95 in data set [3] (setting [20]); 6.58 in data set [3] (setting [21]); 5.97 in data set [3] (solvent printed 2-Ethylhexanol-1 (second line), 100 °C, ref. v). In addition, the Ci was 2.2 mmol/L in data set [1] (setting [6]); 3.0 mmol/L in data set [1] (setting [7]); 3.64 mmol/L in data set [3] (setting [11]); 3.99 mmol/L in data set [3] (setting [12]); 3.45 mmol/L in data set [3] (setting [13]); 4.64 mmol/L in data set [3] (setting [14]). Moreover, the Ci in data set [3] (setting [15]) is 3.84 mmol/L; in data set [3] (setting [16]), 5.32 mmol/L; in data set [3] (setting [10]), 5.07 mmol/L; in data set [3] (setting [17]) it was 3.30 mmol/L; in data set [3] (setting [18]) it was 4.49 mmol/L; in data set [3] (setting [19]) it was 4.19 mmol/L. In data set [3] (setting [21]), the Ci is 3.89 mmol/L.

As for `C` [Methane], the “Xi x 10^4” value in data set [3] (setting [10]) was 37.40; in data set [3] (setting [20]), 20.90.

(Values after EP0804400B1, “HYDROFORMYLATION OF A MULTI-COMPONENT FEED STREAM” (ExxonMobil Research and Engineering Company, priority 1995, dated 1996).)
